Read-outs that look alike come from different tables or passages of the source. Non-standard residues stand in square brackets, D forms with d. Residues, ends and D or L forms follow the SMILES beside them. *: point of attachment. Malonyl(2,2-Me2,histaminyl) = CC(C)(C(=O)NCCc1cnc[nH]1)C(=O)*; Ala(1H-tetrazol-5-yl) = N[C@@H](Cc1nnn[nH]1)C(=O)O; αMeF = C[C@](N)(Cc1ccccc1)C(=O)O; Nle = CCCC[C@H](N)C(=O)O; Aib = CC(C)(N)C(=O)O; Alloc = C=CCOC(=O)*
Legend:
human GLP1 receptor = target: T1, human GLP1 receptor (Homo sapiens, UniProt P43220); experiment: cAMP accumulation assay (HTRF), functional agonism of human GLP1 receptor in HEK cells; type: cell-based; settings: for EC50: read-out: Human GLP-1R agonist cAMP pEC50 (converted)
T1 construct: expressed in transfected cells; host or cells: HEK cells, BacMam virus transduction
T1 sequence (P43220 24-463): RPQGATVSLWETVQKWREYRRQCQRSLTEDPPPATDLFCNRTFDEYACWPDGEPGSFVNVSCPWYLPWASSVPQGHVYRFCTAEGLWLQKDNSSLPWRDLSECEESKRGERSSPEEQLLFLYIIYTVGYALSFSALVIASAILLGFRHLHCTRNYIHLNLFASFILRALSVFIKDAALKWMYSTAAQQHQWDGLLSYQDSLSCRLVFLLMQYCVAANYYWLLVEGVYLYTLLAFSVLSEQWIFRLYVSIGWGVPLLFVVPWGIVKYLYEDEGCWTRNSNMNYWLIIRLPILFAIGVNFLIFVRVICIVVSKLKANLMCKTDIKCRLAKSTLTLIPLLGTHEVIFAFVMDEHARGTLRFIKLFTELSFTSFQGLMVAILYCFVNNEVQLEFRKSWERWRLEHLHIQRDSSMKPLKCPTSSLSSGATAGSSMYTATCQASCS

human GLP2 receptor = target: T2, human GLP2 receptor (Homo sapiens, UniProt O95838); experiment: cAMP accumulation assay (HTRF), functional agonism of human GLP2 receptor in HEK cells; settings: for Emax: HEK293, read-out: Human GLP-2R agonist cAMP Emax;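 on all read-outs here: HEK cells transduced via BacMam to express human GLP2 receptor, agonist-stimulated cAMP measured by HTRF after 45 min at 37 °C in HBSS with 0.5 mM IBMX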
T2 sequence (O95838 1-553): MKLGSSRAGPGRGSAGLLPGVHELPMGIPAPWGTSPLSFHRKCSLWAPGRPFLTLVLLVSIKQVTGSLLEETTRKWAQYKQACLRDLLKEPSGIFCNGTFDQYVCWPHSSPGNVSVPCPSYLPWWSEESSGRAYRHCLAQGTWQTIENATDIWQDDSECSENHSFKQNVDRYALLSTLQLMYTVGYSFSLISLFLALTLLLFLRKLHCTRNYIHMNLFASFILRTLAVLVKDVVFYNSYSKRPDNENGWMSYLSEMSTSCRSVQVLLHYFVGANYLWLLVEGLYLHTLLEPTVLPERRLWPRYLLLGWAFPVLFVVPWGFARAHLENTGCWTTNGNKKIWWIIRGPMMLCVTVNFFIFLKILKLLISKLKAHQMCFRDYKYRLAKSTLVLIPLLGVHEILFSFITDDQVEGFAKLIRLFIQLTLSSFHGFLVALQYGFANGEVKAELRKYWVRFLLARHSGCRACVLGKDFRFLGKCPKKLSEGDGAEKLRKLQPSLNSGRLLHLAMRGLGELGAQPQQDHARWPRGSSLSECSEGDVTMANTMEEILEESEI

[1] = HEK293, HEK cells, human GLP1 receptor BacMam, 45 min 37° C., read-out: Human GLP-1R agonist cAMP Emax
[2] = HEK cells, human GLP1 receptor BacMam, 45 min 37° C.
[3] = HEK293, read-out: Human GLP-1R agonist cAMP Emax

Row | Emax (human GLP1 receptor; [1]) [%] | EC50 (human GLP1 receptor; [2]) [nM] | EC50 (human GLP2 receptor) [nM] | Emax (human GLP2 receptor) [%] | SMILES | Emax (human GLP1 receptor; [3]) [%]
1 | 96.4 | 0.1 | 0.01 | 101 | C=CCOC(=O)NCCCC[C@H](NC(=O)[C@H](CC(C)C)NC(=O)[C@H](CC(=O)O)NC(=O)[C@H](CC(C)C)NC(=O)[C@@H](NC(=O)[C@@H](NC(=O)[C@@H](Cc1ccccc1)NC(=O)[C@H](CCCC)NC(=O)[C@H](CCC(=O)O)NC(=O)[C@H](CC(=O)O)NC(=O)[C@H](CO)NC(=O)[C@](C)(Cc1ccccc1)NC(=O)[C@H](CO)NC(=O)CNC(=O)[C@H](Cc1nn[nH]n1)NC(=O)C(C)(C)C(=O)NCCc1c[nH]cn1)[C@@H](C)O)[C@@H](C)CC)C(=O)N[C@@H](C)C(=O)N[C@@H](C)C(=O)N[C@@H](CCCCN)C(=O)N[C@@H](CC(=O)O)C(=O)N[C@@H](Cc1ccccc1)C(=O)N[C@H](C(=O)N[C@@H](CC(N)=O)C(=O)N[C@@H](Cc1c[nH]c2ccccc12)C(=O)N[C@@H](CC(C)C)C(=O)N[C@H](C(=O)N[C@@H](CCC(N)=O)C(=O)N[C@H](C(=O)N[C@@H](CCCCN)C(=O)N[C@H](C(=O)N[C@H](C(=O)N[C@@H](CC(=O)O)C(N)=O)[C@@H](C)O)[C@@H](C)CC)[C@@H](C)O)[C@@H](C)CC)[C@@H](C)CC [Example 10] ({Malonyl(2,2-Me2,histaminyl)}-[Ala(1H-tetrazol-5-yl)]GS[αMeF]SDE[Nle][dF]TILDLK(Alloc)AAKDFINWLIQTKITD-NH2) | –
2 | 62.2 | 39.8 | 0.01 | 102 | C=CCOC(=O)NCCCC[C@H](NC(=O)[C@H](CC(C)C)NC(=O)[C@H](CC(=O)O)NC(=O)[C@H](CC(C)C)NC(=O)C(C)(C)NC(=O)[C@@H](NC(=O)[C@@H](Cc1ccccc1)NC(=O)[C@H](CCCC)NC(=O)[C@H](CCC(=O)O)NC(=O)[C@H](CC(=O)O)NC(=O)[C@H](CO)NC(=O)[C@H](Cc1ccccc1)NC(=O)[C@H](CO)NC(=O)[C@@H](C)NC(=O)[C@H](Cc1nn[nH]n1)NC(=O)C(C)(C)C(=O)NCCc1c[nH]cn1)[C@@H](C)O)C(=O)N[C@@H](C)C(=O)N[C@@H](C)C(=O)NC(C)(C)C(=O)N[C@@H](CC(=O)O)C(=O)N[C@@H](Cc1ccccc1)C(=O)N[C@H](C(=O)N[C@@H](CC(N)=O)C(=O)N[C@@H](Cc1c[nH]c2ccccc12)C(=O)N[C@@H](CC(C)C)C(=O)N[C@H](C(=O)N[C@@H](CCC(N)=O)C(=O)N[C@H](C(=O)N[C@@H](CCCCN)C(=O)N[C@H](C(=O)N[C@H](C(=O)N[C@@H](Cc1ccccc1)C(N)=O)[C@@H](C)O)[C@@H](C)CC)[C@@H](C)O)[C@@H](C)CC)[C@@H](C)CC [Example 7] ({Malonyl(2,2-Me2,histaminyl)}-[Ala(1H-tetrazol-5-yl)][dA]SFSDE[Nle][dF]T[Aib]LDLK(Alloc)AA[Aib]DFINWLIQTKITF-NH2) | –
3 | 94 | 6.31 | 0.01 | 102 | C=CCOC(=O)NCCCC[C@H](NC(=O)[C@H](CC(C)C)NC(=O)[C@H](CC(=O)O)NC(=O)[C@H](CC(C)C)NC(=O)[C@@H](NC(=O)[C@@H](NC(=O)[C@@H](Cc1ccccc1)NC(=O)[C@H](CCCC)NC(=O)[C@H](CCC(=O)O)NC(=O)[C@H](CC(=O)O)NC(=O)[C@H](CO)NC(=O)[C@H](Cc1ccccc1)NC(=O)[C@H](CO)NC(=O)CNC(=O)[C@H](Cc1nn[nH]n1)NC(=O)C(C)(C)C(=O)NCCc1c[nH]cn1)[C@@H](C)O)[C@@H](C)CC)C(=O)NC(C)(C)C(=O)N[C@@H](C)C(=O)N[C@@H](CCCCN)C(=O)N[C@@H](CC(=O)O)C(=O)N[C@@H](Cc1ccccc1)C(=O)N[C@H](C(=O)N[C@@H](CC(N)=O)C(=O)N[C@@H](Cc1c[nH]c2ccccc12)C(=O)N[C@@H](CC(C)C)C(=O)N[C@H](C(=O)N[C@@H](CCC(N)=O)C(=O)N[C@H](C(=O)N[C@@H](CCCCN)C(=O)N[C@H](C(=O)N[C@H](C(=O)N[C@@H](CC(=O)O)C(N)=O)[C@@H](C)O)[C@@H](C)CC)[C@@H](C)O)[C@@H](C)CC)[C@@H](C)CC [Example 18] ({Malonyl(2,2-Me2,histaminyl)}-[Ala(1H-tetrazol-5-yl)]GSFSDE[Nle][dF]TILDLK(Alloc)[Aib]AKDFINWLIQTKITD-NH2) | –
4 | 95.4 | 1.58 | 0.0126 | 102 | C=CCOC(=O)NCCCC[C@H](NC(=O)[C@H](CC(C)C)NC(=O)[C@H](CC(=O)O)NC(=O)[C@H](CC(C)C)NC(=O)[C@@H](NC(=O)[C@@H](NC(=O)[C@@H](Cc1ccccc1)NC(=O)[C@H](CCCC)NC(=O)[C@H](CCC(=O)O)NC(=O)[C@H](CC(=O)O)NC(=O)[C@H](CO)NC(=O)[C@](C)(Cc1ccccc1)NC(=O)[C@H](CO)NC(=O)[C@@H](C)NC(=O)[C@H](Cc1nn[nH]n1)NC(=O)C(C)(C)C(=O)NCCc1c[nH]cn1)[C@@H](C)O)[C@@H](C)CC)C(=O)NC(C)(C)C(=O)N[C@@H](C)C(=O)N[C@@H](CCCCN)C(=O)N[C@@H](CC(=O)O)C(=O)N[C@@H](Cc1ccccc1)C(=O)N[C@H](C(=O)N[C@@H](CC(N)=O)C(=O)N[C@@H](Cc1c[nH]c2ccccc12)C(=O)N[C@@H](CC(C)C)C(=O)N[C@H](C(=O)N[C@@H](CCC(N)=O)C(=O)N[C@H](C(=O)N[C@@H](CCCCN)C(=O)N[C@H](C(=O)N[C@H](C(=O)N[C@@H](CC(=O)O)C(N)=O)[C@@H](C)O)[C@@H](C)CC)[C@@H](C)O)[C@@H](C)CC)[C@@H](C)CC [Example 11] ({Malonyl(2,2-Me2,histaminyl)}-[Ala(1H-tetrazol-5-yl)][dA]S[αMeF]SDE[Nle][dF]TILDLK(Alloc)[Aib]AKDFINWLIQTKITD-NH2) | –

Row | SMILES | Emax (human GLP1 receptor; [1]) [%] | EC50 (human GLP1 receptor; [2]) [nM] | EC50 (human GLP2 receptor) [nM] | Emax (human GLP2 receptor) [%] | Emax (human GLP1 receptor; [3]) [%]
5 | C=CCOC(=O)NCCCC[C@H](NC(=O)[C@H](C)NC(=O)C(C)(C)NC(=O)[C@H](CCCCNC(=O)OCC=C)NC(=O)[C@H](CC(N)=O)NC(=O)[C@H](CC(=O)O)NC(=O)[C@H](CC(C)C)NC(=O)C(C)(C)NC(=O)[C@@H](NC(=O)[C@H](CC(N)=O)NC(=O)[C@H](CCCC)NC(=O)[C@H](CCC(=O)O)NC(=O)[C@H](CC(=O)O)NC(=O)[C@H](CO)NC(=O)[C@H](Cc1ccccc1)NC(=O)[C@H](CO)NC(=O)[C@@H](C)NC(=O)[C@H](Cc1nn[nH]n1)NC(=O)C(C)(C)C(=O)NCCc1c[nH]cn1)[C@@H](C)O)C(=O)N[C@@H](CC(=O)O)C(=O)N[C@@H](Cc1ccccc1)C(=O)N[C@H](C(=O)N[C@@H](CC(N)=O)C(=O)N[C@@H](Cc1c[nH]c2ccccc12)C(=O)N[C@@H](CC(C)C)C(=O)N[C@H](C(=O)N[C@@H](CCC(N)=O)C(=O)N[C@H](C(=O)N[C@@H](CCCNC(=N)N)C(=O)N[C@H](C(=O)N[C@H](C(=O)N[C@@H](Cc1ccccc1)C(N)=O)[C@@H](C)O)[C@@H](C)CC)[C@@H](C)O)[C@@H](C)CC)[C@@H](C)CC [Example 8] ({Malonyl(2,2-Me2,histaminyl)}-[Ala(1H-tetrazol-5-yl)][dA]SFSDE[Nle]NT[Aib]LDNK(Alloc)[Aib]AK(Alloc)DFINWLIQTRITF-NH2) | – | – | – | 104 | 93.3
6 | C=CCOC(=O)NCCCC[C@H](NC(=O)[C@H](CC(C)C)NC(=O)[C@H](CC(=O)O)NC(=O)[C@H](CC(C)C)NC(=O)C(C)(C)NC(=O)[C@@H](NC(=O)[C@@H](Cc1ccccc1)NC(=O)[C@H](CCCC)NC(=O)[C@H](CCC(=O)O)NC(=O)[C@H](CC(=O)O)NC(=O)[C@H](CO)NC(=O)[C@H](Cc1ccccc1)NC(=O)[C@H](CO)NC(=O)CNC(=O)[C@H](Cc1nn[nH]n1)NC(=O)C(C)(C)C(=O)NCCc1c[nH]cn1)[C@@H](C)O)C(=O)N[C@@H](C)C(=O)N[C@@H](C)C(=O)NC(C)(C)C(=O)N[C@@H](CC(=O)O)C(=O)N[C@@H](Cc1ccccc1)C(=O)N[C@H](C(=O)N[C@@H](CC(N)=O)C(=O)N[C@@H](Cc1c[nH]c2ccccc12)C(=O)N[C@@H](CC(C)C)C(=O)N[C@H](C(=O)N[C@@H](CCC(N)=O)C(=O)N[C@H](C(=O)N[C@@H](CCCCN)C(=O)N[C@H](C(=O)N[C@H](C(=O)N[C@@H](Cc1ccccc1)C(N)=O)[C@@H](C)O)[C@@H](C)CC)[C@@H](C)O)[C@@H](C)CC)[C@@H](C)CC [Example 5] ({Malonyl(2,2-Me2,histaminyl)}-[Ala(1H-tetrazol-5-yl)]GSFSDE[Nle][dF]T[Aib]LDLK(Alloc)AA[Aib]DFINWLIQTKITF-NH2) | – | – | – | 103 | 93.6

— patent publication US20230295260A1, “GLP RECEPTOR AGONISTS” (HEPTARES THERAPEUTICS LIMITED, priority 2020, published 2023)
